Source: PubChem BioAssay AID1996
Values after ≈ are worked out from the molar mass of the structure shown.

conditions: buffer; pH 7.4; 200.0 µM

Row | Compound | solubility kinetic [µg/mL]
1 | COC(=O)c1ccc(S(=O)(=O)NC(C)(C)C)n1C | 40.2 (≈ 147 µM)
2 | CC(OC(=O)CC1CCCCC1)C(=O)Nc1ccc(F)cc1 (configuration not stated) | 1.2 (≈ 3.9 µM)
3 | CCN(CC)CCCN=C(N)N.O=S(=O)(O)O | 24
4 | O=C(/C=C/c1ccc(-c2ccccc2)cc1)NCc1cccnc1 | < 0.3
5 | COc1ccccc1N(CC1CO1)S(=O)(=O)c1ccccc1 (configuration not stated) | > 47.9
6 | COc1ccc(C(C)=O)cc1COc1ccccc1[N+](=O)[O-] | < 0.6
7 | O=C(CSc1ncccn1)Nc1ccc2[nH]c(=O)[nH]c2c1 | > 45.2
8 | COc1cccc2c1OCC(C(=O)Nc1nccs1)=C2 | 18.2 (≈ 63.1 µM)
9 | COc1ccccc1C(=O)NC1CCN(C(=O)Nc2ccc(C)cc2)CC1 | 46.8 (≈ 127 µM)
10 | CCCN1C(=O)CC(=O)N=C1SCC(=O)Nc1ccccc1F | > 50.6
11 | CCCn1c(S(=O)(=O)O)nc2ccccc21 | > 36
12 | CCC(=NCCc1ccccc1)c1c(O)[nH]c(=O)[nH]c1=O | > 43.1
13 | O=C(CNC(=O)c1ccco1)OCc1ccc(Br)cc1 | 40.5 (≈ 120 µM)
14 | Cc1cccn2c(Nc3ccccc3)c(-c3ccccn3)nc12 | 31.2 (≈ 104 µM)
15 | CC(C)=CCN1CCN(Cc2c[nH]c3ccccc23)CC1CCO (configuration not stated) | > 49.1
16 | CN1CCN(C(=O)CNC(=O)c2cccs2)CC1 | > 40.1
17 | COc1ccc(C(=O)NCC(=O)N2CCN(C(=O)c3ccco3)CC2)cc1[N+](=O)[O-] | > 62.5
18 | CC(=O)c1ccc(N2CCN(C(=O)Nc3cccc(F)c3)CC2)cc1 | 4.8 (≈ 14.1 µM)
19 | COc1ccc(NC(=O)C2=CC=CN3CCS(=O)(=O)N=C23)c(OC)c1 | 13.8 (≈ 38 µM)
20 | Cc1ccc(S(=O)(=O)CC(=O)N2CCOCC2)cc1 | > 42.5
21 | COc1ccc(OCC(=O)OCC(=O)Nc2cc(S(=O)(=O)N3CCOCC3)ccc2Cl)cc1 | 62.5 (≈ 125 µM)
22 | CCOc1ccc(C(=O)NC(C(=O)N2CCC2)C(C)C)cc1 (configuration not stated) | > 45.7
23 | O=C(Nc1ccccc1NC(=O)c1ccco1)c1ccccc1 | 17.1 (≈ 55.8 µM)
24 | CN(C)c1ccc(NC(=O)c2ccc3nc[nH]c3c2)cc1 | > 42

Row | Compound | solubility kinetic [µg/mL]
25 | Cc1ccc(N2C(=O)C3C4C=CC(CC4)C3C2=O)cc1Br (configuration not stated) | < 0.7
26 | O=C(/C=C/c1ccccc1Cl)Nc1cccnc1 | 27 (≈ 104 µM)
27 | COc1cccc(CNC(=O)CCCC(=O)Nc2cccc([N+](=O)[O-])c2)c1 | > 55.7
28 | O=C1CCC2=C(CCCC2=O)N1 | 24.2 (≈ 146 µM)
29 | Clc1ccc(Cl)c(-c2nc(-c3ccncc3)no2)c1 | < 0.2
30 | O=C(O)c1ccccc1NC(=O)C1C2C=CC(C2)C1C(=O)O (configuration not stated) | > 45.2
31 | COc1ccc(NC(=S)NCCN2CCOCC2)cc1 | > 44.3
32 | CCc1nnc(NC(=O)C2CSC3(C)CCC(=O)N23)s1 (configuration not stated) | > 46.9
33 | CC(OCCN(C)C)C(=O)C12CC3CC(CC(C3)C1)C2.Cl (configuration not stated) | 46.8
34 | COC(=O)C1=C(C)NC(C)=C(C(=O)OC)C1c1ccco1 | 21.9 (≈ 75.2 µM)
35 | Cc1ccc(NC(=O)C[n+]2ccccc2)cc1C.[Cl-] | > 41.5
36 | O=C1Nc2ccccc2C1Cc1ccccn1 (configuration not stated) | > 33.6
37 | NC1CCN(c2c(F)cc3c(=O)c(C(=O)O)cn(C4CC4)c3c2Cl)C1 (configuration not stated) | > 54.9
38 | CC(C)CC(=O)Nc1ccc(S(=O)(=O)Nc2nccs2)cc1 | > 50.9
39 | COc1ccc(/C=C(\C#N)C(=O)OCC(=O)NC2CC2)cc1 | 10.1 (≈ 33.6 µM)
40 | COc1ccccc1C1CCN(c2ccc([N+](=O)[O-])cn2)CC1 | < 0.2
41 | O=C(Nc1ncccc1O)c1ccc(Oc2ccccc2)cc1 | > 45.9
42 | CC(=O)Oc1ccc(NC(=O)Cc2ccccc2)c(C(=O)O)c1 | > 47
43 | COc1ccc(CCNC(=O)COC(=O)CCC(=O)c2ccc(F)cc2)cc1 | 15.9 (≈ 41 µM)
44 | O=C(NCc1ccccc1F)c1ccc2ccccc2n1 | 20.9 (≈ 74.6 µM)
45 | COC1C(C)=C(C)C(=O)N1Cc1ccc(F)cc1 (configuration not stated) | 31.9 (≈ 128 µM)
46 | COc1ccc(CN2CCN(C(=O)C3CCN(C(=O)Nc4ccccc4)CC3)CC2)cc1OC | 60.6 (≈ 130 µM)
47 | O=C(c1cccc(C(F)(F)F)c1)N1CCN(CCc2ccccc2)CC1 | > 54.4
